Entries after “also recorded” stand apart in the source; their conditions may differ. Read-outs that look alike come from different tables or passages of the source.
Columns and labels:
PDE4D2 = target: T1, PDE4D2 (Homo sapiens, UniProt Q08499); test: PDE isoform selectivity panel: PDE4D2; assay type: biochemical
T1 construct: purchased BPS Bioscience Inc

PDE9A2 = target: T2, PDE9A2 (Homo sapiens, UniProt O76083); test: PDE isoform selectivity panel: PDE9A2; assay type: biochemical; conditions: 10 μM compound
T2 construct: purchased BPS Bioscience Inc
T2 sequence (O76083 1-533 isoform O76083-2): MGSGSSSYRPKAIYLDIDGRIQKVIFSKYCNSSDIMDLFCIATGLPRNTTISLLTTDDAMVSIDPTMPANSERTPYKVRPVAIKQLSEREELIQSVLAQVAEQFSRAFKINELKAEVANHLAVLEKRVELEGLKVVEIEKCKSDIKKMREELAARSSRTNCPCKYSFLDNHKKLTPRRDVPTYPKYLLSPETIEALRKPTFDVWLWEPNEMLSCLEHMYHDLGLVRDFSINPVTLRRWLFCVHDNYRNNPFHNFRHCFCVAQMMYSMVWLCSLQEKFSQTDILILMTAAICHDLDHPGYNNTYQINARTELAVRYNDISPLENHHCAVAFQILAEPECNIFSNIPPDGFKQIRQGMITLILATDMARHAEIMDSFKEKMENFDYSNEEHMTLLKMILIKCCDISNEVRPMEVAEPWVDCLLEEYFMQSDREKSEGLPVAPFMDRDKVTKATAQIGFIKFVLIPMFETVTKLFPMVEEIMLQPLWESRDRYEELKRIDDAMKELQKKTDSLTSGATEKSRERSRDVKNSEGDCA

PDE5A1 = target: T3, PDE5A1 (Homo sapiens, UniProt O76074); test: PDE isoform selectivity panel: PDE5A1; assay type: biochemical; conditions: PDE5A1; 10 μM compound
T3 construct: purchased BPS Bioscience Inc

PDE10A1 = target: T4, PDE10A1 (Homo sapiens, UniProt Q9Y233); test: PDE isoform selectivity panel: PDE10A1; assay type: biochemical
T4 construct: purchased BPS Bioscience Inc

PDE4C1 = target: T5, PDE4C1 (Homo sapiens, UniProt Q08493); test: PDE isoform selectivity panel: PDE4C1; assay type: biochemical
T5 construct: purchased BPS Bioscience Inc

PDE1B = PDE1B (Homo sapiens, UniProt Q01064); test: PDE isoform selectivity panel: PDE1B; assay type: biochemical; conditions: read-out: % Inhibition of the Enzyme Activity at 10 μM
PDE3A = target: T6, PDE3A (Homo sapiens, UniProt Q14432); test: PDE isoform selectivity panel: PDE3A; assay type: biochemical; conditions: 10 μM compound, read-out: % Inhibition of the Enzyme Activity at 10 μM
T6 construct: purchased BPS Bioscience Inc
Method: (§1) The potency of these compounds was assessed versus 20 different phosphodiesters (PDEs) using methods described in the foregoing Examples.

PDE2A = PDE2A (Homo sapiens, UniProt O00408); test: PDE isoform selectivity panel: PDE2A; assay type: biochemical; conditions: PDE2A; 10 μM compound
Chain of PDE2A (O00408 whole entry, canonical isoform): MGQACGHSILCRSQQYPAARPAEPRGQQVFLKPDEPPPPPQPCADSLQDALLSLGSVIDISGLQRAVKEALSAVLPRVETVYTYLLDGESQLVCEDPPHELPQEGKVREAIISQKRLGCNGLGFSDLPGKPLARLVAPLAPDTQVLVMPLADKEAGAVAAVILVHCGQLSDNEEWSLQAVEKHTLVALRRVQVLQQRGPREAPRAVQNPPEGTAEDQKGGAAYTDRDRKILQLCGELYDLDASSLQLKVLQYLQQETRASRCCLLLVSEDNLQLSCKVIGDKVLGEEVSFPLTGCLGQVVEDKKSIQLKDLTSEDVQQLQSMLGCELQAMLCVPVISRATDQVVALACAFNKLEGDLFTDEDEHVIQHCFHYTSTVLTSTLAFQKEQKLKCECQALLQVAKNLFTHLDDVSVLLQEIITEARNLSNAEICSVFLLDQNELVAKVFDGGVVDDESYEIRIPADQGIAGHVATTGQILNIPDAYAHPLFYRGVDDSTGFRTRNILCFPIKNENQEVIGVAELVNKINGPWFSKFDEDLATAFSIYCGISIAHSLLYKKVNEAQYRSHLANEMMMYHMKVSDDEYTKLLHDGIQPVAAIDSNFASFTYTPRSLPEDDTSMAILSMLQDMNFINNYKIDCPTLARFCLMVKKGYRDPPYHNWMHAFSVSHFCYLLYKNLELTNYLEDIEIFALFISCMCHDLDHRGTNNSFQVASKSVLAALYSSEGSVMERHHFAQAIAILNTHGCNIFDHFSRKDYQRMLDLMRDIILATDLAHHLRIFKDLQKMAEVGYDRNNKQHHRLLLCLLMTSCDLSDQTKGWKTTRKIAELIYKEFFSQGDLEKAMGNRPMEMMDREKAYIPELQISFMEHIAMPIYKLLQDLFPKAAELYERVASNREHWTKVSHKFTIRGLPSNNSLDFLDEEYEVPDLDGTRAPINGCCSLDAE
Method: as §1

PDE4A1A [1] = target: T7, PDE4A1A (Homo sapiens, UniProt P27815); test: IMAP fluorescence polarization assay with purified PDE4A1A; assay type: biochemical; set-up: purchased BPS Bioscience; conditions: Table 3; three separate experiments (SD provided); read-out: PDE4A IC50
T7 sequence (P27815 1-647 isoform P27815-4): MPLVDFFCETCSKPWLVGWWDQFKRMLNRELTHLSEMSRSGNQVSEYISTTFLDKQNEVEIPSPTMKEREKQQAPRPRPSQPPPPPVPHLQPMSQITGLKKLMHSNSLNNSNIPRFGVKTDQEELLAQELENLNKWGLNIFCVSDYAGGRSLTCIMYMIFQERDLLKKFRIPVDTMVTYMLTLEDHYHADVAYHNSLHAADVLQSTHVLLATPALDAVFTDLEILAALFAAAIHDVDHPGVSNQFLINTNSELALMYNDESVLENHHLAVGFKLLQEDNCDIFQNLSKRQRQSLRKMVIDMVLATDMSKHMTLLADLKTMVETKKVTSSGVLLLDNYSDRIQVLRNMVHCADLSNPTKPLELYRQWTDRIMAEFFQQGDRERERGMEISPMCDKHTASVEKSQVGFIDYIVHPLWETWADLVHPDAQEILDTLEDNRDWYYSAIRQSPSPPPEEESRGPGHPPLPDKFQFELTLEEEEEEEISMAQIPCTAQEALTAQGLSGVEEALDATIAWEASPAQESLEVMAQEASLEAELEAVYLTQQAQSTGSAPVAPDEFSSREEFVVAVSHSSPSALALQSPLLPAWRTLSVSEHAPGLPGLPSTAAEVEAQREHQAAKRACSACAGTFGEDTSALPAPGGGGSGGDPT
Method: Briefly, two microliters of PDE4A1A (0.05 ng/μl PDE4A1A, 10 mM Tris pH 7.2, 0.1% BSA, 10 mM MgCl2, 1 mM DTT, and 0.05% NaN3, final concentration) was dispensed into wells of 1536-well black/solid bottom assay plates (Greiner Bio-One North. America, NC) using a Flying Reagent Dispenser (Aurora Discovery, CA). The plates were centrifuged at 1000 rpm for 30 seconds and then 23 nanoliters of test compound was transferred to the assay plate using a Kalypsys pin tool. After incubation at room temperature for 5 min, 2 μL/well of cAMP (100 nM, final concentration) was dispensed for a final assay volume of 4 μL/well. The plates were centrifuged at 1000 rpm for 30 seconds, incubated for 40 minutes at room temperature, and then 4 microliters of IMAP binding reagent were added to the wells.

PDE4B2 = target: T8, PDE4B2 (Homo sapiens, UniProt Q07343); test: PDE isoform selectivity panel: PDE4B2; assay type: biochemical
T8 construct: purchased BPS Bioscience Inc
T8 sequence (Q07343 1-564 isoform Q07343-2): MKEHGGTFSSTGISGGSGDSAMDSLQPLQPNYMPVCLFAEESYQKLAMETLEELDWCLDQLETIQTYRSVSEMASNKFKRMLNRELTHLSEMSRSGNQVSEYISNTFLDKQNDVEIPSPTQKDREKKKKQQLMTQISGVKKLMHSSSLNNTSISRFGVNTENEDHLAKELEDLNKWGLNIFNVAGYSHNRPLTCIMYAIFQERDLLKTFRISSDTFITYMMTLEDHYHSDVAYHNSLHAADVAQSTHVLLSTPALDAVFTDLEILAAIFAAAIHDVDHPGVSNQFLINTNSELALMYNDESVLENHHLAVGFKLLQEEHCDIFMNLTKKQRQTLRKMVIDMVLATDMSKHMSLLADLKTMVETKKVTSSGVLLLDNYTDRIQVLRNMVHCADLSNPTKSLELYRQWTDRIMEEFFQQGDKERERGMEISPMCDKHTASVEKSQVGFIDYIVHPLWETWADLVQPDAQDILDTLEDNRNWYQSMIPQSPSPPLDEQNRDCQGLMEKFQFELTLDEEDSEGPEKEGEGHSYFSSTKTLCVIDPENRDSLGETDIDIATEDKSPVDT

PDE3B = target: T9, PDE3B (Homo sapiens, UniProt Q13370); test: PDE isoform selectivity panel: PDE3B; assay type: biochemical
T9 construct: purchased BPS Bioscience Inc
Method: as §1

[2] = system: PKA reporter Reg-F[1]:Cat-F[2] in β2AR-HEK293 cells; test: Protein-fragment complementation (Rluc PCA PKA reporter) cell-based assay; conditions: FIG. 4B; 100 μM and 10 μM, 30 min
Method: Cell culture: Stable β2AR-HEK293 cells were plated into 96-well white walled microliter plates (Corning) and grown in DMEM (Invitrogen) supplemented with 10% fetal bovine serum. Transient transfections of plasmids harboring the Rluc PCA PKA reporter were performed with FuGENE-6 reagent (Roche).
Rluc activities were monitored for the first 10 seconds after addition of the substrate benzyl-coelenterazine (5 μM, Nanolight).
Protein-fragment Complementation (PCA) cell-based assay. […] To further examine the efficacy of the PDE inhibitors described herein, a reporter enzyme was used—Renilla reniformis luciferase (Rluc), where the N- and C-terminal fragments of Rluc are fused to the catalytic subunits (Cat) and inhibiting regulatory subunits (Reg) of protein kinase A (PKA).

PDE4B1 = target: T10, PDE4B1 (Homo sapiens, UniProt Q07343); test: PDE isoform selectivity panel: PDE4B1; assay type: biochemical
T10 construct: purchased BPS Bioscience Inc
Method: as §1

PDE1C = PDE1C (Homo sapiens, UniProt Q14123); test: PDE isoform selectivity panel: PDE1C; assay type: biochemical; conditions: PDE1C; 10 μM compound
PDE7A = PDE7A (Homo sapiens, UniProt Q13946); test: PDE isoform selectivity panel: PDE7A; assay type: biochemical; conditions: PDE7A; 10 μM compound
Method: as §1

PDE1A = target: T11, PDE1A (Homo sapiens, UniProt P54750); test: PDE isoform selectivity panel: PDE1A; assay type: biochemical; conditions: 10 μM compound
T11 construct: purchased BPS Bioscience Inc
T11 sequence (P54750 whole entry, canonical isoform): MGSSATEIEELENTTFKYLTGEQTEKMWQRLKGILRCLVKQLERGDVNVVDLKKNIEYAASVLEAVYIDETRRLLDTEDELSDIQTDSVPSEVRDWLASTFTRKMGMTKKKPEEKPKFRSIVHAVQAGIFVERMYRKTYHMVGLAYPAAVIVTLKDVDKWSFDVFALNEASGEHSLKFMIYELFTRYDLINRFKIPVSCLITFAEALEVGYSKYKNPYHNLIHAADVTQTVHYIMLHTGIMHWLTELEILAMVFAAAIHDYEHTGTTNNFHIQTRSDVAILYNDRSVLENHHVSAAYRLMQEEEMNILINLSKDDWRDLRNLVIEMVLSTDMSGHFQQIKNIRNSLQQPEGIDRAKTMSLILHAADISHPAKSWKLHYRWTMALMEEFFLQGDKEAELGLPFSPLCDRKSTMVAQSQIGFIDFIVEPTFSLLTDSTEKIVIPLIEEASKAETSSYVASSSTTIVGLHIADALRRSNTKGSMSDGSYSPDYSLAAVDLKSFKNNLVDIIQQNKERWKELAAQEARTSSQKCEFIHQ

PDE4 = conditions: read-out: EC50 (concentration at 50% activity); FIG. 3; four separate experiments; normalized to 10 μM 1 response
Method: Cyclic nucleotide-gated cation channel assay. The PDE4 cell line (BD Biosciences, Rockville, Md.) assay was conducted as described in reference 18.
A flying reagent dispensing (FRD) workstation (Aurora Discovery, San Diego) was used to dispense cells and reagents to 1536-well plates. The compounds were serially diluted in DMSO in 384-well plates first and reformatted into 1536-well plates at 7 μL/well using a Cybi-well dispensing station with a 384-well head (Cybio, Inc. Woburn, Mass.). A Pintool station was used to transfer 23 nL of compounds in DMSO solution to the 1536-well assay plates. The final DMSO concentration in the assay plates was under 0.5%. During compound library screening, all plate manipulations were done on an automated robotic system (Kalypsys, San Diego, Calif.). 1 was used as the positive control and data was normalized to 10 μM 1 response (100% activity). All samples were tested in duplicate.
Cyclic-nucleotide gated ion channel cell-based assay. The first cell-based analysis of PDE4 activity involved an assay based on the coupling of a constitutively activated G-protein coupled receptor (GPCR) and cyclic-nucleotide gated (CNG) ion channel that are coexpressed in HEK293 cells. […] The read-out for this assay is based on measurement of membrane electrical potential by a potential-sensitive fluorophore (ACTOne™ dye kit). Inhibitors of PDE4 will interfere with the native enzymatic conversion of cAMP to AMP resulting in increased intracellular levels of the cyclic (cAMP) nucleotide due to constitutive activity of the GPCR. In response to increased amounts of cAMP, the CNG ion channel opens resulting in membrane polarization. The dye reacts to this alteration in membrane polarity with an increase in fluorescence detectable by fluorescence spectroscopy of whole cells read on a fluorescence microtiter plate reader.

PDE4A1A [3] = target: T7, PDE4A1A
Method: as §1

PDE7B = PDE7B (Homo sapiens, UniProt Q9NP56); test: PDE isoform selectivity panel: PDE7B; assay type: biochemical; conditions: PDE7B; 10 μM compound
Method: as §1

PDE11A4 = PDE11A4 (Homo sapiens, UniProt Q9HCR9); test: PDE isoform selectivity panel: PDE11A4; assay type: biochemical; conditions: 10 μM compound
Chain of PDE11A4 (Q9HCR9 whole entry, canonical isoform): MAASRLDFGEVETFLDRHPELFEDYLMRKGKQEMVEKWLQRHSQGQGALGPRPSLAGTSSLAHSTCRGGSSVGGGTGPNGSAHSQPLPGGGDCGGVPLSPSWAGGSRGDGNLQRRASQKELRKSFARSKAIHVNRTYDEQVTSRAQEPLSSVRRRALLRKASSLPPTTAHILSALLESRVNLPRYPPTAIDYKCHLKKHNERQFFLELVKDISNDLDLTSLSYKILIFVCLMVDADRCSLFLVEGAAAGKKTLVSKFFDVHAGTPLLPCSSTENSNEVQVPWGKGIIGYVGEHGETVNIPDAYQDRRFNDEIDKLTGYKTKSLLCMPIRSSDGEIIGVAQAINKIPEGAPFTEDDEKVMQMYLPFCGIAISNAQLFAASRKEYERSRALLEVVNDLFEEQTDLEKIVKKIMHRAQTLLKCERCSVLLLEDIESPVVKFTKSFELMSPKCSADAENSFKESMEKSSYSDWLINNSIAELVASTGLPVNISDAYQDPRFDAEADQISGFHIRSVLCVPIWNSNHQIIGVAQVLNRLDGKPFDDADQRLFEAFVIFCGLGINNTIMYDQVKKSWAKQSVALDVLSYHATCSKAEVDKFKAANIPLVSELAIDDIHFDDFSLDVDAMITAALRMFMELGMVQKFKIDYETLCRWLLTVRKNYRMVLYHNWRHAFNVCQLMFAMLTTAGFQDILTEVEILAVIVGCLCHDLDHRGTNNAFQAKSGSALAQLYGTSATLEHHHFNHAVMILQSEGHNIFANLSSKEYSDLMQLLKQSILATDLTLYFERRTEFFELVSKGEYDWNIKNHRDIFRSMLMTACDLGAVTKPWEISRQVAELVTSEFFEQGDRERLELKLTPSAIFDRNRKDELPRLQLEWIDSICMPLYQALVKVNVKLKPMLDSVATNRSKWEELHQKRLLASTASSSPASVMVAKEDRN

PDE8A1 = PDE8A1 (Homo sapiens, UniProt O60658); test: PDE isoform selectivity panel: PDE8A1; assay type: biochemical; conditions: 10 μM compound
Method: as §1

[4] = read-out: % Inhibition of the Enzyme Activity at 10 μM

T1 sequence (Q08499 303-809 limits assumed): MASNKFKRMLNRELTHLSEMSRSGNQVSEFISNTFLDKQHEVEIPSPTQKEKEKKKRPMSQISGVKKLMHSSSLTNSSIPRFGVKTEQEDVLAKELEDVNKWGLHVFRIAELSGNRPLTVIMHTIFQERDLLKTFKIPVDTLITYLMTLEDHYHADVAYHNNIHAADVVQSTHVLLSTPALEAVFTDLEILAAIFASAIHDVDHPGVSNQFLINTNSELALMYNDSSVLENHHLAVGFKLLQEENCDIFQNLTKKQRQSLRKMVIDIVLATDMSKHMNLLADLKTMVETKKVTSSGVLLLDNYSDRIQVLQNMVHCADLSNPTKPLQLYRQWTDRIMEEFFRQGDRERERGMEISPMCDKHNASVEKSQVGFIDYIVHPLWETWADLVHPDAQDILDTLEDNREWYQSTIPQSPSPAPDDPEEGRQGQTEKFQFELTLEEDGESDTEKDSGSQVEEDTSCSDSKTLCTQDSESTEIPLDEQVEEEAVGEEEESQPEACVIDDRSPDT

SMILES: COc1ccc(OC)c(-c2nnc3n2N=C(c2ccc(OC)c(O[C@@H]4CCOC4)c2)CS3)c1 [Compound 10, (R)-3-(2,5-dimethoxyphenyl)-6-(4-methoxy-3-(tetrahydrofuran-3-yloxy)phenyl)-7H-[1,2,4]-triazolo[3,4-b][1,3,4]thiadiazine]
- IC50 (PDE4D2): 1.9 nM
- % Inhibition of the Enzyme Activity at 10 μM (PDE9A2): inactive
- inhibition at 10 µM (PDE9A2; [4]): < 26%
- % Inhibition of the Enzyme Activity at 10 μM (PDE5A1): 58%
- IC50 (PDE10A1): 632 nM
- IC50 (PDE4C1): 46 nM
- inhibition at 10 µM (PDE1B): 52%
- inhibition at 10 µM (PDE3A): 56%
- % Inhibition of the Enzyme Activity at 10 μM (PDE2A): 68%
- IC50 (PDE4A1A [1]): 3 nM
- IC50 (PDE4B2): 1.6 nM
- IC50 (PDE3B): 4600 nM
- effect on luminescence signal (PKA activation) [2]: marked loss of luminescence; also recorded: dose-dependent inhibition
- IC50 (PDE4B1): 2.3 nM
- % Inhibition of the Enzyme Activity at 10 μM (PDE1C): 49%
- % Inhibition of the Enzyme Activity at 10 μM (PDE7A): 48%
- % Inhibition of the Enzyme Activity at 10 μM (PDE1A): 36%
- EC50 (PDE4): 2.3 nM
- IC50 (PDE4A1A [3]): Sub-nanomolar potencies
- % Inhibition of the Enzyme Activity at 10 μM (PDE7B): 43%
- % Inhibition of the Enzyme Activity at 10 μM (PDE11A4): inactive
- inhibition at 10 µM (PDE11A4; [4]): < 26%
- % Inhibition of the Enzyme Activity at 10 μM (PDE8A1): inactive

— US20110112079A1, “PHOSPHODIESTERASE INHIBITORS” (priority 2008, published 2011)
